Assay [1] has as its target T1, Peroxisome proliferator-activated receptor gamma (Homo sapiens, UniProt P37231).
T1 sequence (P37231 whole entry): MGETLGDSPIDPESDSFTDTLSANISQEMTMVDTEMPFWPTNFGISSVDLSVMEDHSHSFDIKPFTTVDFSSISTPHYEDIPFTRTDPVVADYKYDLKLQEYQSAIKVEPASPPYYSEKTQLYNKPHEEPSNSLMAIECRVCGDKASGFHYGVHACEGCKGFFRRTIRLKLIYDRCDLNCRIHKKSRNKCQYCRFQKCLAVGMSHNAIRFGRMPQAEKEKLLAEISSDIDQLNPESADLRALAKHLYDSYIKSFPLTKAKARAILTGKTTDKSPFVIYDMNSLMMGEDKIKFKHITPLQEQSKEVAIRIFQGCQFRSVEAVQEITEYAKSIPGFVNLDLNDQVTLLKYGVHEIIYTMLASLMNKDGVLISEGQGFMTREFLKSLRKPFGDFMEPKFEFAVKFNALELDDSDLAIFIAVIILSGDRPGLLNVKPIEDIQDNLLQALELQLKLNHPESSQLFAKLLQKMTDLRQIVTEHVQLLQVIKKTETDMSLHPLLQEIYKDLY

The target of assay [2] is T2, Peroxisome proliferator-activated receptor alpha (Homo sapiens, UniProt Q07869).
T2 sequence (Q07869 whole entry): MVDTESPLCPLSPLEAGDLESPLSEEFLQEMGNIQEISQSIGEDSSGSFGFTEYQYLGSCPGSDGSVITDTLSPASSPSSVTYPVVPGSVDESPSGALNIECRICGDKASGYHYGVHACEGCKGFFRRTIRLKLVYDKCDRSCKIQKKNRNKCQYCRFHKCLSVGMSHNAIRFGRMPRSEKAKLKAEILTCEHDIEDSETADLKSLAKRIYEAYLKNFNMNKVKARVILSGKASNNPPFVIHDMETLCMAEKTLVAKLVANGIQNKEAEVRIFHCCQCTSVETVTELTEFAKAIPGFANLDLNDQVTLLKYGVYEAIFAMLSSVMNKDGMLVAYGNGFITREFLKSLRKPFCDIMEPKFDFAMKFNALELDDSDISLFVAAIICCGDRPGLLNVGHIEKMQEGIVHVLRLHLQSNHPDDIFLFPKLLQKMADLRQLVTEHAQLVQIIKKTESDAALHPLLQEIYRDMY
Briefly: In vitro effective concentration against human peroxisome proliferator activated receptor alpha/Gal4 in transactivation assay.

Assay [3] has as its target T1, Peroxisome proliferator-activated receptor gamma. Briefly: In vitro effective concentration against human peroxisome proliferator activated receptor gamma/Gal4 in cell-based transactivation assay. It counts as functional.

Bounds are passed on as bounds.

One may read the Ki as a dissociation constant, usually derived from enzyme kinetics or from competition with a known ligand. Read a low Ki as a stronger hold on the target. Usually EC50 stands for the concentration needed to bring the measured effect to its halfway point.

Consider `CCCCCOc1nc2ccccc2cc1C(O)CC#CCCCC(=O)OC` (stereo unspecified), for which the Ki in assay [1] was greater than 10 µM. Also, the EC50 in assay [2] amounted to 0.262 µM; in assay [3], 1.41 µM.

Turning to `CCCCCOc1ncccc1C(O)C/C=C/CCCC(=O)OC` (stereo unspecified), the Ki in assay [1] was greater than 10 µM. For the same compound, the EC50 in assay [2] and in assay [3] was greater than 10 µM each time.

The compound `CCCCCOc1ncccc1C(O)CC#CCCCC(=O)O` (stereo unspecified) showed a Ki in assay [1] greater than 10 µM. The EC50 in assay [2] is 1.54 µM; in assay [3], greater than 10 µM.

The compound `CCCCCOc1nc2ccccc2cc1C(O)CC=CCCCC(=O)O` (stereo unspecified) registered a Ki in assay [1] greater than 10 µM. Also, the results for the EC50 in assay [2] and in assay [3] were 1.09 µM and 1.2 µM, respectively.

`CCCCCOc1nc2ccccc2cc1C(O)CC=CCCCC(=O)OC` (stereo unspecified) displayed a Ki in assay [1] of 1.33 µM. The EC50 in assay [2] stood at 1.3 µM; in assay [3], 1.55 µM.

In turn, `CCCCCOc1nc2ccccc2cc1C(O)CC#CCCCC(=O)O` (stereo unspecified) yielded a Ki in assay [1] of 0.947 µM. For the same compound, the EC50 stood at 0.114 µM in assay [2] and 0.617 µM in assay [3].

Compound `CCCCCOc1cc2ccccc2cc1C(O)CCCCCCC(=O)O` (stereo unspecified) returned a Ki in assay [1] of 0.969 µM. Also, the concentration giving a half-maximal response (EC50) in assay [2] is 1.48 µM; in assay [3] it was greater than 10 µM.

With `CCCCCOc1ncccc1C(O)CC#CCCCC(=O)OC` (stereo unspecified), the inhibition constant (Ki) in assay [1] was greater than 10 µM. The EC50 in assay [2] is 1.63 µM; in assay [3] it was 0.549 µM.

`CCCCCOc1ncccc1C(O)CCCCCCC(=O)O` (stereo unspecified): the Ki in assay [1] is greater than 10 µM. Further, the EC50 in assay [2] and in assay [3] was greater than 10 µM in each case.

Compound `CCCCCOc1ccccc1C(O)CC=CCCCC(=O)OC` (stereo unspecified) registered a Ki in assay [1] of 3.76 µM. Moreover, the EC50 in assay [2] is greater than 10 µM; in assay [3], 0.028 µM.

In turn, `CCCCCOc1ncccc1C(O)C/C=C/CCCC(=O)O` (stereo unspecified) had a Ki in assay [1] greater than 10 µM. Also, the EC50 in assay [2] and in assay [3] was greater than 10 µM each time.

`CCCCCOc1nc2ccccc2cc1C(O)CCCCCCCC(=O)OC` (stereo unspecified) returned a Ki in assay [1] greater than 10 µM. For the same compound, the EC50 in assay [2] and in assay [3] was greater than 10 µM throughout.

`CCCCCOc1nc2ccccc2cc1C(O)CCCCCC(=O)O` (stereo unspecified): the affinity in assay [1] corresponds to a Ki of 2.86 µM. Also, the figures for the EC50 in assay [2] and in assay [3] were 1.4 µM and 1.57 µM, respectively.

For the compound `CCCCCOc1cc2ccccc2cc1C(O)C/C=C/CCCC(=O)OC` (stereo unspecified), in assay [1], the affinity corresponds to a Ki of 0.718 µM. Further, the EC50 in assay [2] was 1.45 µM; in assay [3] it was greater than 10 µM.

The compound `CCCCCOc1cc2ccccc2cc1C(O)CC=CCCCC(=O)O` (stereo unspecified) displayed a Ki in assay [1] of 1.03 µM. Also, the figures for the EC50 in assay [2] and in assay [3] were 1.19 µM and 1.5 µM, respectively.

`CCCCCOc1ccccc1C(O)CCCCCCC(=O)O` (stereo unspecified): the affinity in assay [1] corresponds to a Ki of 6.69 µM. Also, the half-maximal effective concentration (EC50) in assay [2] and in assay [3] was greater than 10 µM each time.

Compound `CCCCCOc1ccccc1C(O)CC#CCCCC(=O)O` (stereo unspecified) returned an inhibitory constant (Ki) in assay [1] greater than 10 µM. Moreover, the EC50 in assay [2] and in assay [3] was greater than 10 µM each time.

`CCCCCOc1ccccc1C(O)CC#CCCCC(=O)OC` (stereo unspecified) gave a Ki in assay [1] of 1.05 µM. Moreover, the results for the EC50 in assay [2] and in assay [3] were 0.173 µM and 0.642 µM, respectively.

`CCCCCOc1ccccc1C(O)CC=CCCCC(=O)O` (stereo unspecified) came in with a Ki in assay [1] greater than 10 µM. Also, the EC50 in assay [2] is greater than 10 µM; in assay [3], 0.34 µM.

With `CCCCCOc1ccccc1C(O)CCCCCCC(=O)OC` (stereo unspecified), affinity in assay [1] was put at a Ki of 0.515 µM. The half-maximal effective concentration (EC50) in assay [2] and in assay [3] was greater than 10 µM throughout.

Compound `CCCCCOc1cc2ccccc2cc1C(O)CCCCCCCC(=O)OC` (stereo unspecified) returned a Ki in assay [1] of 0.579 µM. The results for the EC50 in assay [2] and in assay [3] were 1.53 µM and 1.36 µM, respectively.

The compound `CCCCCOc1cc2ccccc2cc1C(O)CC#CCCCC(=O)O` (stereo unspecified) showed a Ki in assay [1] of 4.39 µM. Moreover, the EC50 in assay [3] is greater than 10 µM.

For `CCCCCOc1cc2ccccc2cc1C(O)CC#CCCCC(=O)OC` (stereo unspecified), the Ki in assay [1] is 0.695 µM. Besides, the EC50 is 1.14 µM in assay [2] and greater than 10 µM in assay [3].

In assay [1], `CCCCCOc1ncccc1C(O)CCCCCCC(=O)OC` (stereo unspecified) had a Ki greater than 10 µM. Further, the concentration for a half-maximal effect (EC50) in assay [2] and in assay [3] was greater than 10 µM each time.

The record behind these values is ChEMBL document CHEMBL1142837, “Synthesis of new carbo- and heterocyclic analogues of 8-HETE and evaluation of their activity towards the PPARs” (Bioorg Med Chem Lett, 2005).
